Reference: PubChem BioAssay AID623938 (Vanderbilt Specialized Chemistry Center, 2012)
Active and inactive are the calls of the source. How the calls were made is not given here.

Molecular target: Muscarinic acetylcholine receptor M4 (Homo sapiens) (UniProt P08173)
Test: human M4 receptor positive allosteric modulators, SAR follow-up, cell-based, calcium mobilization (AID 623938)
Conditions: hM4 cells, PAM with EC20 ACh; for % ACh max: active compounds read high

Muscarinic acetylcholine receptor M4 (Homo sapiens), sequence (P08173 whole entry, looked up): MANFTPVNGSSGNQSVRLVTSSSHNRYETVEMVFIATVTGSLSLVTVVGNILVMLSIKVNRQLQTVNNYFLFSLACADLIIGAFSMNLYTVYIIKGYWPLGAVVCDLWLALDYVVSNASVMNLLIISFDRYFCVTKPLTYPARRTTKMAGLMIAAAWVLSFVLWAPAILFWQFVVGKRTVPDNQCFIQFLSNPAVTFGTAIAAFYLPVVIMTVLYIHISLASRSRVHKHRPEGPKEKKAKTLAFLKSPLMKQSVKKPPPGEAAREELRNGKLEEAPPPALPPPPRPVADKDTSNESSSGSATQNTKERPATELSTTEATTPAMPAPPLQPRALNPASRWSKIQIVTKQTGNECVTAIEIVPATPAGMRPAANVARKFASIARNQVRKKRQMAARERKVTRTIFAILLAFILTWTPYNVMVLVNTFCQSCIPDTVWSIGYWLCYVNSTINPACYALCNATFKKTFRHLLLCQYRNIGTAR

| SMILES | % ACh max | EC50 [nM] | further results |
| --- | --- | --- | --- |
| COc1ccc(C)c2sc(NS(=O)(=O)c3cccc(Cl)c3)nc12 | inactive | – | – |
| COc1ccc(C)c2sc(NC(=O)C3=C(C)OCCO3)nc12 | inactive | – | – |
| O=C(Nc1nc2cccnc2s1)c1cccnn1 | inactive | – | – |
| Cc1nc2sc(C(=O)NCCc3cccnc3)c(N)c2c(C)c1Cl | – | – | outcome: inactive |
| Cc1nc2sc(C(=O)NCc3ncccn3)c(N)c2c(C)c1Cl | – | 1070 | – |
| COc1ccc(C)c2sc(NCC3CC3)nc12 | inactive | – | – |
| CCCCC1CC1C(=O)Nc1nc2c(OC)ccc(C)c2s1 (centres undefined) | inactive | – | – |
| Cc1nc2sc(C(=O)NC(C)c3cccnc3)c(N)c2c(C)c1Cl (centres undefined) | – | 601 | – |
| COc1ccc(C)c2sc(NS(=O)(=O)c3cccc(C)c3)nc12 | inactive | – | – |
| COc1ccc(C)c2sc(NC(=O)C3CCC3)nc12 | – | > 10000 | – |
| O=C(Nc1nc2cccnc2s1)c1cnccn1 | inactive | – | – |
| COc1ccc(C)c2sc(C(=O)NC3CCCC3)nc12 | inactive | – | – |
| COc1cccc2sc(NC(=O)c3ccncc3)nc12 | – | 2300 | – |
| COc1ccc(C)c2sc(NC(=O)C3CC3)nc12 | – | > 10000 | – |
| Cc1nc2sc(C(=O)NCc3ccc(F)c(F)c3)c(N)c2c(C)c1Cl | – | – | outcome: active; potentiator |
| COc1ccc(C)c2sc(NC(=O)c3ccc(F)cc3)nc12 | inactive | – | – |
| O=C(Nc1nc2cccnc2s1)C1CCCC1 | inactive | – | – |
| Cc1nc2sc(C(=O)NCCc3ccccn3)c(N)c2c(C)c1Cl | – | 686 | – |
| Cc1nc2sc(C(=O)NCc3ccc(C(F)(F)F)cc3)c(N)c2c(C)c1Cl | – | 1140 | – |
| COc1ccc(C)c2sc(NC(=O)N3CCCCC3)nc12 | inactive | – | – |
| COc1ccc(C)c2sc(NC(=O)CCc3ccccc3)nc12 | inactive | – | – |
| COc1ccc(C)c2sc(NC(=O)c3ccc(F)c(F)c3)nc12 | inactive | – | – |
| COc1ccc(C)c2sc(NS(=O)(=O)c3ccc4occc4c3)nc12 | inactive | – | – |
| COc1ccc(C)c2sc(NS(=O)(=O)c3cnn(C)c3)nc12 | inactive | – | – |

| SMILES | % ACh max | EC50 [nM] | further results |
| --- | --- | --- | --- |
| COc1ccc(C)c2sc(NC(=O)C3CCCOC3)nc12 (centres undefined) | – | > 10000 | – |
| CCCC(=O)Nc1nc2c(OC)ccc(C)c2s1 | – | > 10000 | – |
| Cc1nc2sc(C(=O)NC3CCCCC3)c(N)c2c(C)c1Cl | – | 188 | – |
| COc1ccc(C)c2sc(NC(=O)C3CC3C)nc12 (centres undefined) | – | > 10000 | – |
| COc1ccc(C)c2sc(C(=O)NCc3ccncc3)nc12 | inactive | – | – |
| COc1ccc(C)c2sc(NC(=O)C3CCCCC3)nc12 | – | > 10000 | – |
| COc1ccc(C)c2sc(NC(=O)NC3CCC3)nc12 | inactive | – | – |
| Cc1ccc(CNC(=O)c2sc3nc(C)c(Cl)c(C)c3c2N)cc1 | – | 132 | – |
| COc1ccc(C)c2sc(NC(=O)c3ccc(F)cc3F)nc12 | inactive | – | – |
| COc1ccc(C)c2sc(NC(=O)c3ccncc3)nc12 | – | 1400 | – |
| Cc1nc2sc(C(=O)NCc3ccncn3)c(N)c2c(C)c1Cl | – | 173 | – |
| Cc1nc2sc(C(=O)NCc3ccnnc3)c(N)c2c(C)c1Cl | – | 222 | – |
| COc1ccc(C)c2sc(NC(=O)NC3CCCC3)nc12 | – | 3580 | – |
| Cc1nc2sc(C(=O)NCc3cnccn3)c(N)c2c(C)c1Cl | – | 250 | – |
| COc1ccc(C)c2sc(NS(=O)(=O)c3cc(C)ccn3)nc12 | inactive | – | – |
| COc1ccc(C)c2sc(NC(=O)c3ccccn3)nc12 | inactive | – | – |
| Cc1nc2sc(C(=O)NC(C)c3ccccn3)c(N)c2c(C)c1Cl (centres undefined) | – | 1410 | – |
| COc1ccc(C)c2sc(NC(=O)C3CCCCO3)nc12 (centres undefined) | 64.1% | – | – |
| Cc1nc2sc(C(=O)NC(C)c3ccncc3)c(N)c2c(C)c1Cl (centres undefined) | – | 600 | – |
| COc1ccc(NC(=O)c2sc3nc(C)c(Cl)c(C)c3c2N)cc1 | – | – | outcome: active; potentiator |
| COc1ccc(C)c2sc(C(=O)NC3COC3)nc12 | 36.4% | – | – |
| COc1ccc(C)c2sc(NC(=O)NC3CC3)nc12 | – | > 10000 | – |
| Cc1nc2sc(C(=O)NCc3ccc(Cl)cc3)c(N)c2c(C)c1Cl | – | – | outcome: active; potentiator |
| COc1ccc2nc(NC(=O)c3ccncc3)sc2n1 | inactive | – | – |

| SMILES | % ACh max | EC50 [nM] | further results |
| --- | --- | --- | --- |
| Cc1nc2sc(C(=O)NCc3ccccc3)c(N)c2c(C)c1Cl | – | 133 | – |
| Cc1nc2sc(C(=O)Nc3ccccc3N(C)C)c(N)c2c(C)c1Cl | – | – | outcome: inactive |
| Cc1nc2sc(C(=O)NCc3nccs3)c(N)c2c(C)c1Cl | – | 174 | – |
| O=C(Nc1nc2cccnc2s1)C1CCC1 | inactive | – | – |
| COc1ccc(C)c2sc(NC(C)=O)nc12 | inactive | – | – |
| COc1ccc(C)c2sc(NS(=O)(=O)c3ccc(F)cc3F)nc12 | inactive | – | – |
| COc1ccc(C)c2sc(NC(=O)c3c(F)cccc3F)nc12 | inactive | – | – |
| Cc1nc2sc(C(=O)NC3CCOCC3)c(N)c2c(C)c1Cl | – | 220 | – |
| Cc1nc2sc(C(=O)NC(C)(C)C)c(N)c2c(C)c1Cl | – | 372 | – |
| COc1ccc(C)c2sc(NC(=O)c3ccco3)nc12 | – | 1430 | – |
| Clc1cccc(Nc2n[nH]c3ccccc23)c1 | inactive | – | – |
| Cc1nc2sc(C(=O)NCC3CCCCC3)c(N)c2c(C)c1Cl | – | 1090 | – |
| Cc1nc2sc(C(=O)NCc3cccc(F)c3F)c(N)c2c(C)c1Cl | – | 120 | – |
| COCCCNC(=O)c1sc2nc(C)c(Cl)c(C)c2c1N | – | 425 | – |
| COc1ccc(C)c2sc(C(=O)Nc3ccc(C)nc3)nc12 | inactive | – | – |
| COc1ccc(C)c2sc(NC(=O)c3cc(F)cc(F)c3)nc12 | inactive | – | – |
| Cc1nc2sc(C(=O)NCCc3ccncc3)c(N)c2c(C)c1Cl | – | 211 | – |
| COc1ccc(C)c2sc(C(=O)NC3CC3)nc12 | – | > 10000 | – |
| COc1ccc(C)c2sc(NC(=O)c3cccnc3)nc12 | – | 2500 | – |
| COc1ccc(CNC(=O)c2sc3nc(C)c(Cl)c(C)c3c2N)cc1 | – | 89 | – |
| Cc1nc2sc(C(=O)NCc3ccncc3)c(N)c2c(C)c1Cl | – | 37 | – |
| Cc1nc2sc(C(=O)NCc3ccc4c(c3)OCO4)c(N)c2c(C)c1Cl | – | 170 | – |
| COc1ccc(C)c2sc(NC(=O)Nc3ccncc3)nc12 | inactive | – | – |
| Cc1nc2sc(C(=O)NC(C)C)c(N)c2c(C)c1Cl | – | 183 | – |

| SMILES | % ACh max | EC50 [nM] | further results |
| --- | --- | --- | --- |
| COc1ccc(C)c2sc(C(=O)NC3CCCCC3)nc12 | inactive | – | – |
| O=C(Nc1nc2ccccc2s1)C1CCCCO1 (centres undefined) | inactive | – | – |
| COc1ccc(C)c2sc(NC(=O)c3cnccn3)nc12 | – | 745 | – |
| COc1ccc(C)c2sc(NC(=O)C3CCCC3)nc12 | – | > 10000 | – |
| COc1ccc(C)c2sc(NC(=O)NCc3ccncc3)nc12 | inactive | – | – |
| Cc1nc2sc(C(=O)NCc3cccnc3)c(N)c2c(C)c1Cl | – | 328 | – |
| CCOc1ccc(NC(=O)c2sc3nc(C)c(Cl)c(C)c3c2N)cc1 | – | – | outcome: inactive |
| COCC(=O)Nc1nc2c(OC)ccc(C)c2s1 | – | > 10000 | – |
| Cc1nc2sc(C(=O)NC3CC3)c(N)c2c(C)c1Cl | – | 21 | – |
| Cc1nc2sc(C(=O)NCc3ccccc3Cl)c(N)c2c(C)c1Cl | – | 154 | – |
| COc1ccc(C)c2sc(NS(=O)(=O)c3ccc(C(F)(F)F)cc3)nc12 | inactive | – | – |
| Cc1cc(CNC(=O)c2sc3nc(C)c(Cl)c(C)c3c2N)ccn1 | – | 57 | – |
| COc1ccc(C)c2sc(NC(=O)N3CCCC3)nc12 | – | > 10000 | – |
| Cc1nc2sc(C(=O)NC3CCOC3)c(N)c2c(C)c1Cl (centres undefined) | – | 29 | – |
| COc1ccc(C)c2sc(NC(=O)C(C)C)nc12 | – | > 10000 | – |
| Cc1nc2sc(C(=O)NC3COC3)c(N)c2c(C)c1Cl | – | 906 | – |
| COc1ccc(C)c2sc(NC(=O)C3=COCCO3)nc12 | – | 1900 | – |
| COc1ccc(C)c2sc(C(=O)Nc3ccncc3)nc12 | inactive | – | – |
| COc1ccc(C)c2sc(NC(=O)CC(C)(C)C)nc12 | inactive | – | – |
| Cc1nc2sc(C(=O)NCc3ccccn3)c(N)c2c(C)c1Cl | – | 293 | – |
| Cc1nc2sc(C(=O)NCCC3CCCN3C)c(N)c2c(C)c1Cl (centres undefined) | – | 596 | – |
| COc1ccc(C)c2sc(NC(=O)c3ccc(C)cc3)nc12 | inactive | – | – |
